The source made the active and inactive calls. No rule for the calls is given here.
Tested on: rodent carcinogenicity bioassays, tumor incidence
Experiment: CCRIS carcinogenicity studies
Outline: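 NCI-built, expert-reviewed records of carcinogenicity and related test outcomes (mutagenicity, tumor promotion/inhibition) compiled from published and report sources, historical span 1985-2011, not updated.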

c1ccc2c(c1)cc1ccc3cccc4c5ccccc5c2c1c34
carcinogen call (Species: MOUSE, Route: DERMAL, Tumor Site: Type of Lesion: INTEGUMENTARY SYSTEM (SKIN)): active; positive
carcinogen call (Species: MOUSE, Route: SUBCUTANEOUS, Tumor Site: Type of Lesion: INJECTION SITE): active; positive
carcinogen call (Species: MOUSE, Strain/Sex: SWISS/FEMALE, Route: DERMAL, Dose: 0, 1, 4, 8 NMOL IN 100 µL ACETONE 2/WK FOR 40 WK (STUDY DURATION: 48 WK), Dose: 0, 1, 4, 8 NMOL IN 100 µL ACETONE 2/WK FOR 40 WK (STUDY DURATION: 48 WK), Tumor Site: Type of Lesion: SKIN: TUMORS): active; positive
carcinogen call (Species: Mouse, Strain/Sex: B6129SF1/J v 129S1/SvImJ crosses, Route: Transplacental, Dose: 15 mg/kg bw in corn oil to dams on day 18 of gestation, study duration 10 months, Tumor Site: Type of Lesion: Lung and liver tumors): active; positive
carcinogen call (Species: Mouse, Strain/Sex: B6129SF1x129S1/Svlmj/Male and female (215 in 4 groups), Route: In utero, nursing, or in utero and nursing, Dose: 15 mg/kg, gavage to pregnant B6129SF1 females, once on day 17 of pregnancy (Study duration 10 months from birth), Tumor Site: Type of Lesion: Lung): active; positive (surviving offspring exhibited 100% incidence with multiplicity of appr
carcinogen call (Species: RAT, Strain/Sex: SPRAGUE-DAWLEY/FEMALE, Route: INJECTION, Dose: 0, 0.25, 1 UMOL PER MAMMARY GLAND (STUDY DURATION: 24 WK), Dose: 0, 0.25, 1 UMOL PER MAMMARY GLAND (STUDY DURATION: 24 WK), Tumor Site: Type of Lesion: MAMMARY GLAND: TUMOR): active; positive

CCS(=O)(=O)c1ccc(S(N)(=O)=O)c2ccccc12
carcinogen call (Species: MOUSE, Strain/Sex: A X 1F/FEMALE, Route: ORAL, Dose: 0, 0.01% IN POWDERED OXOID DIET (STUDY DURATION: 333-701 D), Tumor Site: Type of Lesion: BLADDER: CARCINOMA, LUNG: ADENOMA): active; positive
carcinogen call (Species: MOUSE, Strain/Sex: A X 1F/FEMALE, Route: ORAL, Dose: 0, 0.01% IN POWDERED OXOID DIET PRECEDED BY IRRADIATION OF 1000 RAD WITH UPPER BODY SHIELDED 48H PRIOR TO DOSING (STUDY, Tumor Site: Type of Lesion: BLADDER: CARCINOMA, LUNG: ADENOMA): active; positive

CCc1nc(N)nc(N)c1-c1ccc(Cl)cc1
carcinogen call (Species: MOUSE, Strain/Sex: B6C3F1/FEMALE, Route: ORAL, Dose: 0, 500, 1000 PPM IN DIET, Dose: 0, 500, 1000 PPM IN DIET): inactive; negative
carcinogen call (Species: RAT, Strain/Sex: F344/FEMALE, Route: ORAL, Dose: 0, 200, 400 PPM IN DIET 5 D/WK, Dose: 0, 200, 400 PPM IN DIET 5 D/WK): inactive; negative
carcinogen call (Species: RAT, Strain/Sex: F344/MALE, Route: ORAL, Dose: 0, 200, 400 PPM IN DIET 5 D/WK, Dose: 0, 200, 400 PPM IN DIET 5 D/WK): inactive; negative

CN=NCc1ccc(C(=O)NC(C)C)cc1
carcinogen call (Species: MOUSE, Strain/Sex: CDF1/MALE, Route: GAVAGE, Dose: 0, 300 MG/KG IN 0.01 ML OF 0.5% AQUEOUS SOLUTION OF SODIUM CARBOXYMETHYL CELLULOSE 1/WK FOR 4 WK THEN 0, 400 MG/KG 1/WK, Dose: 0, 300 MG/KG IN 0.01 ML OF 0.5% AQUEOUS SOLUTION OF SODIUM CARBOXYMETHYL CELLULOSE 1/WK FOR 4 WK THEN 0, 400 MG/KG 1/WK, Tumor Site: Type of Lesion: PULMONARY SYSTEM: TUMOR, KIDNEY: CYSTADENOMA): active; positive

CC(Cl)CCCC(Cl)CCCC(Cl)CCCC(Cl)CCCC(Cl)CCCC(Cl)CCCl (configuration not stated)
carcinogen call (Species: MOUSE, Strain/Sex: B6C3F1/FEMALE, Route: GAVAGE, Dose: 0, 2500, 5000 MG/KG IN CORN OIL 5 D/WK FOR 103 WK (STUDY DURATION: 103 WK), Dose: 0, 2500, 5000 MG/KG IN CORN OIL 5 D/WK FOR 103 WK (STUDY DURATION: 103 WK), Tumor Site: Type of Lesion: LIVER: HEPATOCELLULAR ADENOMA, HEPATOCELLULAR CARCINOMA): equivocal
carcinogen call (Species: MOUSE, Strain/Sex: B6C3F1/MALE, Route: GAVAGE, Dose: 0, 2500, 5000 MG/KG IN CORN OIL 5 D/WK FOR 103 WK (STUDY DURATION: 103 WK), Dose: 0, 2500, 5000 MG/KG IN CORN OIL 5 D/WK FOR 103 WK (STUDY DURATION: 103 WK), Tumor Site: Type of Lesion: HEMATOPOIETIC SYSTEM: MALIGNANT LYMPHOMA): active; positive
carcinogen call (Species: RAT, Strain/Sex: F344/FEMALE, Route: GAVAGE, Dose: 0, 100, 300, 900 MG/KG IN CORN OIL 5 D/WK FOR 103 WK (STUDY DURATION: 103 WK), Dose: 0, 100, 300, 900 MG/KG IN CORN OIL 5 D/WK FOR 103 WK (STUDY DURATION: 103 WK), Tumor Site: Type of Lesion: ADRENAL GLAND: MEDULLARY PHEOCHROMOCYTOMA): equivocal
carcinogen call (Species: RAT, Strain/Sex: F344/MALE, Route: GAVAGE, Dose: 0, 1875, 3750 MG/KG IN CORN OIL 5 D/WK FOR 103 WK (STUDY DURATION: 103 WK), Dose: 0, 1875, 3750 MG/KG IN CORN OIL 5 D/WK FOR 103 WK (STUDY DURATION: 103 WK)): inactive; negative

CCCN(CCC)S(=O)(=O)c1ccc(C(=O)O)cc1
carcinogen call (Species: MOUSE, Strain/Sex: B6C3F1/FEMALE, Route: GAVAGE, Dose: 0, 100, 400 MG/KG IN CORN OIL 5 D/WK FOR 103 WK (STUDY DURATION: 105 WK), Dose: 0, 100, 400 MG/KG IN CORN OIL 5 D/WK FOR 103 WK (STUDY DURATION: 105 WK), Tumor Site: Type of Lesion: LIVER: HEPATOCELLULAR ADENOMA OR CARCINOMA): active; positive
carcinogen call (Species: MOUSE, Strain/Sex: B6C3F1/MALE, Route: GAVAGE, Dose: 0, 100, 400 MG/KG IN CORN OIL 5 D/WK FOR 103 WK (STUDY DURATION: 105 WK), Dose: 0, 100, 400 MG/KG IN CORN OIL 5 D/WK FOR 103 WK (STUDY DURATION: 105 WK)): inactive; negative
carcinogen call (Species: RAT, Strain/Sex: F344/FEMALE, Route: GAVAGE, Dose: 0, 100, 400 MG/KG IN CORN OIL 5 D/WK FOR 103 WK (STUDY DURATION: 104 WK), Dose: 0, 100, 400 MG/KG IN CORN OIL 5 D/WK FOR 103 WK (STUDY DURATION: 104 WK)): inactive; negative
carcinogen call (Species: RAT, Strain/Sex: F344/MALE, Route: GAVAGE, Dose: 0, 100, 400 MG/KG IN CORN OIL 5 D/WK FOR 103 WK (STUDY DURATION: 104 WK), Dose: 0, 100, 400 MG/KG IN CORN OIL 5 D/WK FOR 103 WK (STUDY DURATION: 104 WK)): inactive; negative

NC=O
carcinogen call (Species: Mouse, Strain/Sex: B5C3F1/Female, Route: Oral, Dose: 0, 20, 40, 80 mg/kg in deioninzed water, by gavage, 5 d/wk for 104-105 wk, Tumor Site: Type of Lesion: Liver: hepatocellular adenoma and carcinoma (combined)): active; positive, authors described results as equivocal evidence of carcinogenic activi
carcinogen call (Species: Mouse, Strain/Sex: B6C3F1/Male, Route: Oral, Dose: 0, 20, 40, 80 mg/kg in deioninzed water, by gavage, 5 d/wk for 104-105 wk, Tumor Site: Type of Lesion: Liver: hemangiosarcoma): active; positive, authors described results as clear evidence of carcinogenic activity
carcinogen call (Species: Rat, Strain/Sex: F344/N/Female, Route: Oral, Dose: 0, 20, 40, 80 mg/kg in deioninzed water, by gavage, 5 d/wk for 104-105 wk): inactive; negative
carcinogen call (Species: Rat, Strain/Sex: F344/N/Male, Route: Oral, Dose: 0, 20, 40, 80 mg/kg in deioninzed water, by gavage, 5 d/wk for 104-105 wk): inactive; negative

N[C@@H](Cc1c[nH]c2ccccc12)C(=O)O
carcinogen call (Species: MOUSE, Strain/Sex: B6C3F1/FEMALE, Route: ORAL, Dose: 0, 25000, 50000 PPM IN DIET, Dose: 0, 25000, 50000 PPM IN DIET): inactive; negative
carcinogen call (Species: MOUSE, Strain/Sex: B6C3F1/MALE, Route: ORAL, Dose: 0, 25000, 50000 PPM IN DIET, Dose: 0, 25000, 50000 PPM IN DIET): inactive; negative
carcinogen call (Species: RAT, Strain/Sex: F344/FEMALE, Route: ORAL, Dose: 0, 25000, 50000 PPM IN DIET, Dose: 0, 25000, 50000 PPM IN DIET): inactive; negative
carcinogen call (Species: RAT, Strain/Sex: F344/MALE, Route: ORAL, Dose: 0, 25000, 50000 PPM IN DIET, Dose: 0, 25000, 50000 PPM IN DIET): inactive; negative

CCOP(=S)(OCC)Oc1nc(Cl)c(Cl)cc1Cl
carcinogen call (Species: Mouse, Strain/Sex: CD-1/Female (59/group), Route: Oral, Dose: 0, 5, 50, 250 ppm in diet for 79 wk, Dose: 0, 5, 50, 250 ppm in diet for 79 wk): inactive; negative (study details not given in source; purity 99.6%)
carcinogen call (Species: Mouse, Strain/Sex: CD-1/Male (59/group), Route: Oral, Dose: 0, 5, 50, 250 ppm in diet for 79 wk, Dose: 0, 5, 50, 250 ppm in diet for 79 wk): inactive; negative (study details not given in source; purity 99.6%)
carcinogen call (Species: RAT, Strain/Sex: F344/FEMALE, Route: ORAL, Dose: 0, 0.05, 0.1, 1, 10 MG/KG BW/D IN DIET FOR 104 WK (STUDY DURATION: 104 WK), Dose: 0, 0.05, 0.1, 1, 10 MG/KG BW/D IN DIET FOR 104 WK (STUDY DURATION: 104 WK)): inactive; negative
carcinogen call (Species: RAT, Strain/Sex: F344/MALE, Route: ORAL, Dose: 0, 0.05, 0.1, 1, 10 MG/KG BW/D IN DIET FOR 104 WK (STUDY DURATION: 104 WK), Dose: 0, 0.05, 0.1, 1, 10 MG/KG BW/D IN DIET FOR 104 WK (STUDY DURATION: 104 WK)): inactive; negative

Source: PubChem BioAssay AID1259411 (Chemical Carcinogenesis Research Information System (CCRIS), 2018)
